The source of these data is patent publication US10940139B2, “Compounds that interact with the Ras superfamily for the treatment of cancers, inflammatory diseases, rasopathies, and fibrotic disease” (Shy Therapeutics LLC, priority 2017, dated 2021).

For experiment [1], the system named is TNFα production in RAW 264.7 macrophage cell line. The experiment in a line: Mouse TNF alpha quantification assay (LPS-stimulated macrophages, ELISA). Conditions: RAW264.7, RAW 264.7 murine leukemia virus transformed macrophage cell lines, LPS stimulation, read-out: TNF-α % Inhibition at 30 μM. In kind it is cell-based.
The subject of experiment [2] is IL6 production in RAW 264.7 macrophage cell line. Put plainly: Mouse IL6 quantification assay (LPS-stimulated macrophages, ELISA). The experiment is classed as cell-based. Conditions: RAW264.7, RAW 264.7 murine leukemia virus transformed macrophage cell lines, LPS stimulation, read-out: IL-6 % Inhibition at 30 μM.

`Cc1sc2nc(N)nc(O)c2c1C` [drawing 2165]: the inhibition at 30 µM in experiment [1] and in experiment [2] was 1 to 25% each time.

Consider `CC(C)COc1ccc(-c2csc3c(O)nc(-c4cn(C)cn4)nc23)cn1` [drawing 2432], for which the inhibition at 30 µM fell in the range of 26 to 50% in experiment [1] and 76 to 100% in experiment [2].

With `O=C(Nc1nc(-c2ccccn2)cs1)C1CC(=O)N(c2ccc3c(c2)OCCO3)C1` (stereo not shown) [drawing 2016], the inhibition at 30 µM lay within 1 to 25% in experiment [1] and 26 to 50% in experiment [2].

In the case of `COc1ccnc(-c2nc(O)c3c(Br)csc3n2)c1` [drawing 2172], the inhibition at 30 µM in experiment [1] is 26 to 50%; in experiment [2] it was 76 to 100%.

For the compound `COCCNc1nc(-c2ccccn2)nc2scc(-c3ccccc3)c12` [drawing 2161], the inhibition at 30 µM in experiment [1] and in experiment [2] was 76 to 100% throughout.

Take `CN(CCc1ccncc1)C(=O)c1csc2c(O)nc(N)nc12`: the inhibition at 30 µM was 0% in experiment [1] and 1 to 25% in experiment [2].

As for `Cn1ccnc1-c1nc(O)c2scc(-c3ccc(F)cc3F)c2n1` [drawing 2443], the inhibition at 30 µM fell in the range of 1 to 25% in experiment [1] and 51 to 75% in experiment [2].

For the compound `O=C(c1csc2c(O)nc(-c3cccnc3)nc12)N1CCNC(Cc2cccc(F)c2)C1` (stereo not shown), the inhibition at 30 µM in experiment [1] fell in the range of 1 to 25%; in experiment [2], 26 to 50%.

Turning to `Nc1nc(O)c2scc(-c3ccccc3Cl)c2n1` [drawing 2119], the results for the inhibition at 30 µM in experiment [1] and in experiment [2] were 0% and 26 to 50%, respectively.

`Nc1nc(O)c2scc(C(=O)N(CCO)CCOCCO)c2n1` [drawing 2096]: the values for the inhibition at 30 µM in experiment [1] and in experiment [2] were 0% and 1 to 25%, respectively.

As to `Oc1nc(-c2ccccn2)nc2c(-c3ccnn3-c3ccccn3)csc12` [drawing 2296], the figures for the inhibition at 30 µM in experiment [1] and in experiment [2] were 0% and 51 to 75%, respectively.

For the compound `Cc1ccc(O)c(CN(C)Cc2nccn2Cc2ccccc2)n1` [drawing 2050], the inhibition at 30 µM in experiment [1] is 0%; in experiment [2], 1 to 25%.

For `Oc1nc(-c2ccccn2)nc2c(-c3ccc(C4CCC4)cc3)csc12` [drawing 2257], the inhibition at 30 µM in experiment [1] was 0%; in experiment [2] it was 51 to 75%.

Take `Oc1nc(-c2ccccn2)nc2c1c(-c1ccccc1)nn2-c1ccccn1` [drawing 2366]: the inhibition at 30 µM in experiment [1] lay in the range of 1 to 25%; in experiment [2], 51 to 75%.

For the compound `Cc1sc2c(O)nc(-c3nccn3C)nc2c1-c1ccccc1Cl` [drawing 2429], the inhibition at 30 µM fell in the range of 1 to 25% in experiment [1] and 26 to 50% in experiment [2].

As to `COc1ccccc1C1CC1C(=O)Nc1nnc(-c2ccccn2)[nH]1` (stereo not shown) [drawing 1986], the inhibition at 30 µM in experiment [1] fell in the range of 1 to 25%; in experiment [2], 26 to 50%.

Turning to `Cn1cc(-c2nc(C(=O)Nc3nnc(-c4ccccn4)[nH]3)cs2)cn1` [drawing 1944], the inhibition at 30 µM in experiment [1] lay in the range of 1 to 25%; in experiment [2], 51 to 75%.

As for `CC(C)C1=C(O)C2(CC2c2ccc(-c3ccccc3)cc2)C(C)CC1` (stereo not shown) [drawing 2068], the figures for the inhibition at 30 µM in experiment [1] and in experiment [2] were 1 to 25% and 0%, respectively.

In the case of `Oc1nc(-c2ccccn2)nc2c(-c3ccccc3)csc12` [drawing 2120], the figures for the inhibition at 30 µM in experiment [1] and in experiment [2] were 51 to 75% and 76 to 100%, respectively.

In the case of `OCC1(c2ccc(-c3csc4c(O)nc(-c5ccccn5)nc34)cc2)CC1` [drawing 2278], the inhibition at 30 µM in experiment [1] is 1 to 25%; in experiment [2], 76 to 100%.

Turning to `COc1cccc(CC(=O)Nc2nnc(-c3ccccn3)[nH]2)c1` [drawing 1933], the results for the inhibition at 30 µM in experiment [1] and in experiment [2] were 1 to 25% and 26 to 50%, respectively.

For the compound `Cc1nc(-c2ccccn2)nc(O)c1CCC(=O)Nc1cccc(OCC(=O)N2CCCC2)c1` [drawing 2036], the inhibition at 30 µM in experiment [1] was 1 to 25%; in experiment [2], 0%.

Consider `O=C(Nc1nnc(-c2ccccn2)[nH]1)c1ccc2c(c1)CCO2` [drawing 1930], for which the values for the inhibition at 30 µM in experiment [1] and in experiment [2] were 0% and 1 to 25%, respectively.

As for `CC(Oc1ccc(C(=O)Nc2nnc(-c3ccccn3)[nH]2)cn1)c1ccccc1` (stereo not shown) [drawing 1968], the inhibition at 30 µM was 0% in experiment [1] and 1 to 25% in experiment [2].

Regarding `CC1CN(c2ccccc2)CCN1C(=O)c1csc2c(O)nc(-c3ccccn3)nc12` (stereo not shown) [drawing 2186], the inhibition at 30 µM in experiment [1] lay in the range of 26 to 50%; in experiment [2], 76 to 100%.

As to `Cc1ccccc1C1CN(C(=O)c2csc3c(O)nc(-c4ccccn4)nc23)CCN1` (stereo not shown) [drawing 2199], the inhibition at 30 µM lay within 1 to 25% in experiment [1] and 76 to 100% in experiment [2].

As for `FC(F)(F)Sc1ccc(Cc2ccc(SC(F)(F)F)cc2)cc1` [drawing 2051], the inhibition at 30 µM in experiment [1] was 0%; in experiment [2], 1 to 25%.

Regarding `CCOCCNc1nc(-c2nccn2C)nc2sc(-c3ccccc3)c(-c3ccccc3)c12` [drawing 2402], the inhibition at 30 µM in experiment [1] and in experiment [2] was 76 to 100% in each case.

`COc1cncc(CCNC(=O)c2csc3nc(-c4ccccn4)nc(N4CCOCC4)c23)c1`: the inhibition at 30 µM in experiment [1] is 0%; in experiment [2], 1 to 25%.

As to `Oc1nc(-c2ccccn2)nc2c(CC3CNC3)csc12` [drawing 2346], the results for the inhibition at 30 µM in experiment [1] and in experiment [2] were 1 to 25% and 76 to 100%, respectively.

Regarding `O=C(CCc1nn[nH]n1)Nc1nc(-c2ccccn2)nc2sccc12` [drawing 2282], the values for the inhibition at 30 µM in experiment [1] and in experiment [2] were 0% and 1 to 25%, respectively.

With `O=C(c1csc2c(O)nc(-c3ccccn3)nc12)N1CCOC(c2nccs2)C1` (stereo not shown) [drawing 2171], the results for the inhibition at 30 µM in experiment [1] and in experiment [2] were 1 to 25% and 51 to 75%, respectively.

`OC1CCCN(c2nc(-c3ccccn3)nc3scc(-c4ccccc4)c23)C1` (stereo not shown) [drawing 2154]: the inhibition at 30 µM in experiment [1] was 1 to 25%; in experiment [2] it was 26 to 50%.

Turning to `COCCNc1nc(-c2nccn2C)nc2sc(-c3ccccc3)c(-c3ccccn3)c12` [drawing 2449], the inhibition at 30 µM in experiment [1] and in experiment [2] was 76 to 100% throughout.

For `COc1ccc(CCC(=O)N2CCCc3c(O)nc(-c4ccccn4)nc32)cc1` [drawing 2073], the figures for the inhibition at 30 µM in experiment [1] and in experiment [2] were 26 to 50% and 76 to 100%, respectively.

With `COc1cccc(N2CCN(C(=O)c3csc4c(O)nc(-c5ccccn5)nc34)CC2)c1` [drawing 2167], the results for the inhibition at 30 µM in experiment [1] and in experiment [2] were 0% and 26 to 50%, respectively.

`COc1nc(-c2ccccn2)nc(Oc2cccc(C(F)(F)F)c2)c1O` [drawing 2392]: the inhibition at 30 µM in experiment [1] was 1 to 25%; in experiment [2], 0%.

Regarding `Cc1sc2c(N)nc(-c3ccccn3)nc2c1Br` [drawing 2285], the inhibition at 30 µM in experiment [1] was 0%; in experiment [2], 1 to 25%.

For the compound `COc1ccc(CCN(C)C(=O)c2csc3nc(-c4ccccn4)nc(N4CCOCC4)c23)cn1` [drawing 2173], the inhibition at 30 µM was 0% in experiment [1] and 26 to 50% in experiment [2].

As to `O=c1nc(-c2ccccn2)[nH]c2scc(-c3ccccc3Cl)c12` [drawing 2025], the inhibition at 30 µM is 1 to 25% in experiment [1] and 0% in experiment [2].

As for `COc1cnc(-c2cnc[nH]2)nc1O` [drawing 2343], the values for the inhibition at 30 µM in experiment [1] and in experiment [2] were 0% and 1 to 25%, respectively.

As for `COc1ncc(CCNC(=O)c2csc3nc(-c4ccccn4)nc(N4CCOCC4)c23)cn1` [drawing 2175], the results for the inhibition at 30 µM in experiment [1] and in experiment [2] were 0% and 1 to 25%, respectively.

For the compound `COc1ccc(COCC(=O)Nc2nnc(-c3ccccn3)[nH]2)cc1` [drawing 2004], the inhibition at 30 µM in experiment [1] fell in the range of 1 to 25%; in experiment [2], 26 to 50%.

`COCCN(CCOC)c1nc(-c2ccccn2)nc2scc(C(=O)NCCc3ccc(OC)nc3)c12` [drawing 2206]: the inhibition at 30 µM is 0% in experiment [1] and 1 to 25% in experiment [2].

Take `O=C(c1ccc(=O)[nH]n1)N1CCCc2c(O)nc(-c3ccccn3)nc21` [drawing 2078]: the values for the inhibition at 30 µM in experiment [1] and in experiment [2] were 1 to 25% and 76 to 100%, respectively.

Regarding `CC(C1CC1)N(CC(F)(F)F)C(=O)Cc1ccc(-c2ccccc2)cc1` (stereo not shown) [drawing 2064], the inhibition at 30 µM in experiment [1] and in experiment [2] was 1 to 25% in each case.

As for `Cn1cnc(-c2nc(O)c3c(-c4ccccc4)c(-c4ccc(CNC(=O)OC(C)(C)C)cc4)sc3n2)c1` [drawing 2364], the inhibition at 30 µM in experiment [1] is 0%; in experiment [2] it was 1 to 25%.

`O=C(CN1CCN(c2nc(-c3ccccn3)nc3scc(-c4ccccc4)c23)CC1)N1CCCCC1` [drawing 2148]: the results for the inhibition at 30 µM in experiment [1] and in experiment [2] were 1 to 25% and 26 to 50%, respectively.

With `COC(=O)c1c(C)sc2c(O)nc(-c3ccccn3)nc12` [drawing 2311], the results for the inhibition at 30 µM in experiment [1] and in experiment [2] were 1 to 25% and 76 to 100%, respectively.

Take `O=C(c1csc2c(O)nc(-c3ccccn3)nc12)N1CCNC(c2ccc(O)cc2)C1` (stereo not shown) [drawing 2218]: the inhibition at 30 µM was 0% in experiment [1] and 1 to 25% in experiment [2].

As for `O=C(c1csc2c(O)nc(-c3ccccn3)nc12)N1CCN(c2ccc(O)c(Cl)c2)CC1` [drawing 2214], the inhibition at 30 µM in experiment [1] is 0%; in experiment [2], 26 to 50%.

Take `O=C(O)c1cc2nc(-c3ccccn3)nc(O)c2s1` [drawing 2243]: the inhibition at 30 µM in experiment [1] and in experiment [2] was 1 to 25% throughout.

As to `COc1ccc(CCC(=O)Nc2nnc(-c3ccccn3)[nH]2)cc1` [drawing 1939], the values for the inhibition at 30 µM in experiment [1] and in experiment [2] were 0% and 1 to 25%, respectively.

Take `Nc1nc(O)c2sc(-c3cccc(C(=O)NCc4cccc(O)n4)c3)cc2n1` [drawing 2373]: the inhibition at 30 µM in experiment [1] is 0%; in experiment [2], 51 to 75%.

For `NC(=O)C1CCCN1C(=O)c1cccc(-c2cc3nc(N)nc(O)c3s2)c1` (stereo not shown) [drawing 2371], the inhibition at 30 µM in experiment [1] and in experiment [2] was 0% in each case.

Regarding `Cn1ccnc1-c1nc(O)c2scc(-c3cccc(OC(F)(F)F)c3)c2n1` [drawing 2430], the figures for the inhibition at 30 µM in experiment [1] and in experiment [2] were 51 to 75% and 76 to 100%, respectively.
